SMILES strings stand for the structures.

This assay addresses T1, GR22e/GR32a/GR66a (Drosophila melanogaster, UniProt P58953+Q9VKJ7+Q9VSH2).
T1 construct: full-length receptors co-expressed in Drosophila S2 cells (with EGFP) and in sweet GRNs via UAS/Gr64f-GAL4
T1 sequence (P58953 1-389): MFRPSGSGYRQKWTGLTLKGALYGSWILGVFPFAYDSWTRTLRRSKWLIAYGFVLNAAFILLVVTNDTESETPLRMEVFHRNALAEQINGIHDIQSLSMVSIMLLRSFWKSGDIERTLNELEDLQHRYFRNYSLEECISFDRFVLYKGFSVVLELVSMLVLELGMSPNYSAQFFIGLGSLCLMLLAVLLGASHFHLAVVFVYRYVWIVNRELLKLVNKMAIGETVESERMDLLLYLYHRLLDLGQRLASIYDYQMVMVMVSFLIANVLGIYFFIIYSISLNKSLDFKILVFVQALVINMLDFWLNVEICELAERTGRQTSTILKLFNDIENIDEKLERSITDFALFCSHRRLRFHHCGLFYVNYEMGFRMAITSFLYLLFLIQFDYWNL
T1 sequence (Q9VKJ7 1-461): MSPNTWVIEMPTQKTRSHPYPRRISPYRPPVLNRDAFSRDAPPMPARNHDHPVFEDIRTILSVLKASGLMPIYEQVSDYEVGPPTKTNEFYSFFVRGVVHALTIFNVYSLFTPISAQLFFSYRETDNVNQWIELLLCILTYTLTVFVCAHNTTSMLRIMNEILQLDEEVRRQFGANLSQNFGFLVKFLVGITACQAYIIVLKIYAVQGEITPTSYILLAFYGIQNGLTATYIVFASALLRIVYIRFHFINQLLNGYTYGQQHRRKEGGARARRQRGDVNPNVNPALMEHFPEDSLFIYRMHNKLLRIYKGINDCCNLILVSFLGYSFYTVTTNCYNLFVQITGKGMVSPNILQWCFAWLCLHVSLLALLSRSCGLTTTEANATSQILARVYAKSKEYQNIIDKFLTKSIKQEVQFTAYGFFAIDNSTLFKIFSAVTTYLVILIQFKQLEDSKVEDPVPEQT
T1 sequence (Q9VSH2 1-527): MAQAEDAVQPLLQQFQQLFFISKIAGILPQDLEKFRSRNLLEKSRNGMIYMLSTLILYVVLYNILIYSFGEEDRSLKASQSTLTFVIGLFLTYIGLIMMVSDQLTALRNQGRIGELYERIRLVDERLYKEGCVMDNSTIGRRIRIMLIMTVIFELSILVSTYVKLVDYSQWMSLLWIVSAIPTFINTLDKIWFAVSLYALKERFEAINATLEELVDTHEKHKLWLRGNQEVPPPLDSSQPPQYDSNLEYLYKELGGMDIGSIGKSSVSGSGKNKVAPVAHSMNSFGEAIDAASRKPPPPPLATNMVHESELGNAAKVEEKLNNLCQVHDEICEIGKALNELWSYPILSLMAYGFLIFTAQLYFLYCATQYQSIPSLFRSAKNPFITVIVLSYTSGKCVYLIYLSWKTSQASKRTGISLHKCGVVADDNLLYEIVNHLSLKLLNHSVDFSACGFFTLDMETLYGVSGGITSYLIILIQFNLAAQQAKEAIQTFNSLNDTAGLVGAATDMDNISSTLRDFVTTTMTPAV
The assay can be described thus: whole-cell patch clamp of S2 cells; tip recording of L-type sensilla misexpressing the receptors. Type of assay: cell-based. As to conditions: agonist; S2 cells pH 7.4, room temperature, voltage ramp -80 to +80 mV; sensilla 1 mM. For orientation: The patch-clamp technique gives a direct electrical read-out from membranes.
Regarding `COc1ccc2cc3[n+](cc2c1OC)CCc1cc2c(cc1-3)OCO2` [BER, berberine], the “whole-cell patch clamp of S2 cells; tip recording of L-type sensilla misexpressi” value is “both Gr combinations confer sensitivity to LOB, BER, and DEN on S2 cells”. For `CC[N+](CC)(CC(=O)Nc1c(C)cccc1C)Cc1ccccc1` [DEN, denatonium] the value was “both Gr combinations confer sensitivity to LOB, BER, and DEN on S2 cells”; for `CN1[C@@H](CC(=O)c2ccccc2)CCC[C@H]1C[C@H](O)c1ccccc1` [LOB, lobeline], “both Gr combinations confer sensitivity to LOB, BER, and DEN on S2 cells”. The value for `O=C1C[C@@H]2OCC=C3CN4CC[C@]56c7ccccc7N1[C@H]5[C@H]2[C@H]3C[C@H]46` [STR, strychnine] was “GR22e/GR32a/GR66a-expressing S2 cells also respond to STR”.
